{
  "source": "patent US10604794B2",
  "about": "“Method to measure the shortest telomeres” (The Board of Regents of The University of Texas System, priority 2017, dated 2020)",
  "key": {"[1]": {"system": "H2087 cells", "assay": "TRF analysis of telomere length in H2087 cells under long-term imetelstat treatment", "assay_type": "cell-based", "conditions": "1 μM imetelstat 3 times per week, 10 and 18 weeks treatment", "experimental": "(§1) FIGS. 2A-2C. Measuring TL in long-term telomerase inhibition with imetelstat (1 μM) treatment and after a removal of drug in H2087 cells. (2A) Isolated DNA from H2087 cells with 1 μM imetelstat treatment for 0, 10 and 18 weeks, and post released from 18 weeks for 1, 2, 3, 4, and 5 weeks was digested with the same REs for TeSLA (BfaI/CviAII/MseI/NdeI) and then separated with 0.7% agarose gel for TRF analysis. (2B) Interphase Q-FISH; cells from H2087 with 0, and 18 weeks 1 μM imetelstat treatment, and 5 weeks after drug removal were used to measure TL by Q-FISH. The results were quantified using TFL-Telo software (n: numbers of nuclei were quantified for each time point as indicated above). (2C) Results of TeSLA using DNA as indicated. Four TeSLA reactions (30 pg of each reaction) were performed for each DNA sample.\n(§2) To further examine the utility of TeSLA in studying telomere dynamics, the inventors evaluated TL dynamics in a telomerase positive non-small cell lung cancer (NSCLC) cell line (H2087). These cells were subjected to long-term telomerase inhibition treatment and then released to observe the dynamic of telomere re-elongation. The results were compared using TeSLA, TRF and telomere Q-FISH. […] In contrast, TeSLA is able to detect TL in both imetelstat treated cells and cells post released from drug in a much more quantitative manner (FIG. 2C). […]"}, "[2]": {"system": "NSCLC cell lines", "conditions": "long-term treatment, multiple NSCLC cell lines; cited from earlier work"}, "[3]": {"system": "telomerase", "conditions": "binds to the active site of telomerase RNA; cited from earlier work"}, "[4]": {"system": "H2087 cells", "assay": "Interphase Q-FISH telomere length in H2087 cells under long-term imetelstat treatment", "assay_type": "cell-based", "conditions": "1 μM imetelstat, 18 weeks treatment compared to 0 weeks and 5 weeks after drug removal", "experimental": "as §1, §2"}},
  "data": [
    {"substance": "imetelstat", "values": [
      {"measurement": "average TL change by TRF analysis", "setting": "[1]", "result": "average TL shortening"},
      {"measurement": "average TL change", "setting": "[2]", "result": "shorten average TL"},
      {"measurement": "telomerase activity", "setting": "[3]", "result": "robustly inhibits telomerase activity"},
      {"measurement": "telomere signals by Q-FISH", "setting": "[4]", "result": "only a few telomere signals with relatively low intensity were detected"}
    ]}
  ]
}
